Laboratory results published in patent US9725490B2, “ERAP1-derived peptide and use thereof” (TOKUSHIMA UNIVERSITY, priority 2011, dated 2017).

Assays:
MCF-7 cells = assay: E2-dependent cell proliferation assay (MTT/CCK-8), MCF-7; format: cell-based, human
Method: FIG. 6-1 is a diagram illustrating that ERAP1-peptide treatment suppresses ERα-dependent cell proliferation of breast cancer cell lines. (A) and (B) show the results of MTT assay by which the inhibition effect of the ERAP1-peptide in the E2-dependent cell proliferation was evaluated. MCF-7 cells were treated with the ERAP1-peptide (A, B) the ERAP1-scramble peptide (B) or the ERAP1-mutant peptide (B).
FIG. 7-1 is a diagram illustrating that ERAP1-peptide treatment suppresses ERα-dependent cell proliferation of breast cancer cell lines. […] KPL-3C cells were treated with the ERAP1-peptide, the scramble peptide or the mutant peptide. Then, immediately, the cells were stimulated with 10 nM E2 for 24 hours. […] Then, immediately, the cells were stimulated with 10 nM E2. Then, the ERAP1-peptide was added every day for […]. […] The arrow indicates addition of the ERAP1-peptide.
FIG. 7-3 is a diagram illustrating that ERAP1-peptide treatment suppresses ERα-dependent cell proliferation of breast cancer cell lines. […] MCF-7 cells were treated with 10 μM ERAP1-peptide. Then, immediately, the cells were stimulated with 10 nM E2 (white square). Then, 10 μM ERAP1-peptide was added every day for four days (black square).
FIG. 20 is a diagram illustrating the results of evaluations for the influence of the difference of the sequence on E2-dependent cell proliferation suppression effect. […] Then, immediately, the cells were stimulated with E2 for 24 hours.
MCF-7 cells were suspended in MEM (Invitrogen, Carlsbad, Calif., USA) reinforced with 10% FBS (Nichirei Biosciences, Tokyo, Japan), 1% antibiotic/antimycotic solution (Invitrogen), 0.1 mM NEAA (Tnvitrogen), 1 mM sodium pyruvate and 10 μg/ml insulin (Sigma, St. Louis, Mo., USA). Then, the cell suspension was seeded in a 48-well plate (2×10^4 cells/200 μl), a 24-well plate (1×10^5 cells/1 ml), a 6-well plate (5×10^5 cells/2 ml) or 10 cm dish (2×10^6 cells/10 ml). The cells were maintained at 37° C. in humidified atmosphere containing 5% carbon dioxide. On the next day of the seeding, the culture medium was exchanged with phenol red-free DMEM/F12 (Invitrogen) reinforced with FBS, an antibiotic/antimycotic solution, NEAA, sodium pyruvate and insulin. After 24 hours, the cells were treated with 10 nM 17β estradiol (E2, Sigma). The ERAP-1 peptide was added just before the E2 stimulation in the inhibition test.
Using Cell-Counting Kit-8 (CCK-8, Dojindo, Kumamoto, Japan), the cell proliferation assay was performed. […] Then, the absorbance at 450 nm was measured and the number of living cells in each well was calculated.
The cell proliferation assay was evaluated using Cell-Counting Kit-8 (CCK-8, Dojindo, Kumamoto, Japan). […] Then, 100 μl from each well was moved to a 96-well plate, and the absorbance at 450 nm was measured with a microplate reader.

[1] = test system: Akt, MAPK and ERα phosphorylation; assay: Phosphorylation of Akt, MAPK and ERα in tamoxifen-resistant MCF-7 cells; format: cell-based, human
Method: FIG. 14 is a diagram illustrating the suppression effect of the ERAP1-peptide on tamoxifen-resistant MCF-7 cells. […] The tamoxifen-resistant MCF-7 cells were treated with the ERAP1-peptide in each concentration (0, 5 and 10 μM). Then, immediately, the cells were stimulated with 10 nM E2 for 24 hours.
MCF-7 cells and tamoxifen-resistant MCF-7 cells were seeded in 1×10^5/well in DMEM/F12 culture medium containing phenol red on a 24-well plate and stood in a CO2 incubator for 24 hours. Then, the culture medium was exchanged with DMEM/F12 culture medium containing 10% FBS, 1% penicillin/streptomycin and 1 μM tamoxifen, and not containing phenol red, and the cells were further pre-cultured for 24 hours. The supernatant was removed, and then 180 μl of […] ERAP1-peptide was added (final concentration: 10 μM), and subsequently 20 μl of 100 nM E2 was added (final concentration: 10 nM), and the mixture was reacted for 24 hours. The reaction solution was removed, and then 100 μl of SDS-sample buffer was added and the cells were lysed. The cells were subjected to boiling treatment at 95° C. for 5 minutes, and subjected to polyacrylic amide electrophoresis. Phosphorylations of Akt and MAPK were detected with anti-phosphorylation Akt (Ser473) (587F11) and anti-phosphorylation p44/42 MAP Kinase (Thr202/Tyr204) antibodies, and phosphorylation of ERα was detected with anti-phosphorylation ERα (Ser104/106), anti-phosphorylation ERα (Ser118), anti-phosphorylation ERα (Ser167), anti-phosphorylation ERα (Ser305) and anti-phosphorylation ERα (Tyr537) antibodies.

CSCC[C@H](NC(=O)[C@H](CCC(N)=O)NC(=O)[C@H](CCCNC(=N)N)NC(=O)[C@H](CCCNC(=N)N)NC(=O)[C@H](CCCNC(=N)N)NC(=O)[C@H](CCCNC(=N)N)NC(=O)[C@H](CCCNC(=N)N)NC(=O)[C@H](CCCNC(=N)N)NC(=O)[C@H](CCCNC(=N)N)NC(=O)[C@H](CCCNC(=N)N)NC(=O)[C@H](CCCNC(=N)N)NC(=O)[C@H](CCCNC(=N)N)NC(=O)[C@@H](N)CCCNC(=N)N)C(=O)N[C@@H](CC(C)C)C(=O)N[C@@H](CO)C(=O)N[C@@H](CC(=O)O)C(=O)N[C@@H](CC(C)C)C(=O)N[C@H](C(=O)N[C@@H](CC(C)C)C(=O)N[C@@H](CCC(N)=O)C(=O)N[C@@H](CC(C)C)C(=O)N[C@@H](CCCNC(=N)N)C(=O)N[C@@H](CCC(N)=O)C(=O)N[C@@H](CCCNC(=N)N)C(=O)O)[C@@H](C)O [ERAP1-peptide]
E2-dependent cell proliferation (MCF-7 cells; 10 nM E2, up to 24 hours): dose-dependently suppressed the E2-dependent cell proliferation | proliferation of the E2-dependent breast cancer cells, repeated administration (MCF-7 cells; 5 μM and 10 μM, every 24 hours for four days): completely suppressed | duration of E2-dependent proliferation suppression effect (MCF-7 cells; 10 μM single addition): complete E2-dependent proliferation suppression effect was recognized up to 24 hours | phosphorylation of ERα ([1]; Tam-R MCF-7, 10 μM peptide): all phosphorylation of ERα was also decreased | phosphorylations of Akt and MAPK ([1]; Tam-R MCF-7, tamoxifen alone or tamoxifen and E2): phosphorylations of Akt and MAPK were remarkably decreased
